Source: ChEMBL document CHEMBL1142090, “Substrate competition studies using whole-cell accumulation assays with the major tripartite multidrug efflux pumps of Escherichia coli” (2007)
Active and inactive are the calls of the source. The rule behind the calls is not given here.

Assays:
Escherichia coli [1] = assay: Antibacterial activity against Escherichia coli AG102 with marR1 mutation after 24 hrs; format: functional; details: AG102, 24 h
Escherichia coli [2] = assay: Antibacterial activity against Escherichia coli HNCE4 after 24 hrs; format: functional; details: HNCE4, 24 h
Escherichia coli [3] = assay: Antibacterial activity against Escherichia coli AG102MB after 24 hrs; format: functional
Escherichia coli [4] = assay: Effect on modulation in uptake of [3H]testosterone in Escherichia coli AG102 with marR1 mutation; format: functional, organism-based
Escherichia coli [5] = assay: Effect on modulation in uptake of [3H]hydrocortisone in Escherichia coli AG102 with marR1 mutation; format: functional, organism-based
Escherichia coli [6] = assay: Increase in [3H]testosterone uptake in Escherichia coli AG102 at 100 uM; format: functional, organism-based
Escherichia coli [7] = assay: Increase in [3H]testosterone uptake in Escherichia coli HNCE4 at 100 uM; format: functional, organism-based
Escherichia coli [8] = assay: Increase in [3H]testosterone uptake in Escherichia coli AG102MB at 100 uM; format: functional, organism-based
Escherichia coli [9] = assay: Effect on modulation in uptake of [3H]progesterone in Escherichia coli AG102MB; format: functional, organism-based
Escherichia coli [10] = assay: Effect on modulation in uptake of [3H]progesterone in Escherichia coli HNCE4; format: functional, organism-based

Compound	MIC (Escherichia coli [1])	MIC (Escherichia coli [2])	MIC (Escherichia coli [3])	also measured
COC(=O)[C@H]1[C@H]2C[C@@H]3c4[nH]c5cc(OC)ccc5c4CCN3C[C@H]2C[C@@H](OC(=O)c2cc(OC)c(OC)c(OC)c2)[C@@H]1OC [RESERPINE]	256 µg/mL	128 µg/mL	128 µg/mL	–
CO[C@H]1C[C@H](O[C@H]2[C@H](C)[C@@H](O[C@@H]3O[C@H](C)C[C@H](N(C)C)[C@H]3O)[C@@H](C)C[C@@]3(CO3)C(=O)[C@H](C)[C@@H](O)[C@@H](C)[C@@H](C)OC(=O)[C@@H]2C)O[C@@H](C)[C@@H]1O [OLEANDOMYCIN]	> 512 µg/mL	256 µg/mL	128 µg/mL	–
CN(C)c1ccc(C(=C2C=CC(=[N+](C)C)C=C2)c2ccc(N(C)C)cc2)cc1.[Cl-] [GENTIAN VIOLET]	32 µg/mL	8 µg/mL	0.5 µg/mL	–
CC[n+]1c(-c2ccccc2)c2cc(N)ccc2c2ccc(N)cc21.[Br-] [HOMIDIUM BROMIDE]	256 µg/mL	32 µg/mL	4 µg/mL	–
CO[C@@H]1[C@@H](OC(N)=O)[C@@H](O)[C@H](Oc2ccc3c(O)c(NC(=O)c4ccc(O)c(CC=C(C)C)c4)c(=O)oc3c2C)OC1(C)C [NOVOBIOCIN]	512 µg/mL	4 µg/mL	4 µg/mL	–
CC[C@H]1OC(=O)[C@H](C)[C@@H](O[C@H]2C[C@@](C)(OC)[C@@H](O)[C@H](C)O2)[C@H](C)[C@@H](O[C@@H]2O[C@H](C)C[C@H](N(C)C)[C@H]2O)[C@](C)(O)C[C@@H](C)/C(=N\OCOCCOC)[C@H](C)[C@@H](O)[C@]1(C)O [ROXITHROMYCIN]	512 µg/mL	128 µg/mL	64 µg/mL	–
CC1(C)S[C@@H]2[C@H](NC(=O)[C@H](N)c3ccccc3)C(=O)N2[C@H]1C(=O)O [AMPICILLIN]	32 µg/mL	16 µg/mL	16 µg/mL	–
CC[C@H]1OC(=O)C[C@@H](O)[C@H](C)[C@@H](O[C@@H]2O[C@H](C)[C@@H](O[C@H]3C[C@@](C)(O)[C@@H](O)[C@H](C)O3)[C@H](N(C)C)[C@H]2O)[C@@H](CC=O)C[C@@H](C)C(=O)/C=C/C(C)=C/[C@@H]1CO[C@@H]1O[C@H](C)[C@@H](O)[C@@H](OC)[C@H]1OC [TYLOSIN]	> 512 µg/mL	64 µg/mL	128 µg/mL	–
C[C@H](CCC(=O)O)[C@H]1CC[C@H]2[C@@H]3[C@H](O)C[C@@H]4C[C@H](O)CC[C@]4(C)[C@H]3C[C@H](O)[C@]12C [CHOLIC ACID]	16000 µg/mL	2000 µg/mL	4000 µg/mL	–
CO[C@@H]1[C@@H](O[C@@H]2O[C@H](C)[C@@H](O[C@H]3C[C@@](C)(O)[C@@H](OC(=O)CC(C)C)[C@H](C)O3)[C@H](N(C)C)[C@H]2O)[C@@H](CC=O)C[C@@H](C)[C@@H](O)/C=C/C=C/C[C@@H](C)OC(=O)C[C@H]1OC(C)=O [JOSAMYCIN]	> 512 µg/mL	4 µg/mL	32 µg/mL	–
NC[C@H]1O[C@H](O[C@H]2[C@H](O)[C@@H](O[C@H]3O[C@H](CO)[C@@H](O)[C@H](N)[C@H]3O)[C@H](N)C[C@@H]2N)[C@H](O)[C@@H](O)[C@@H]1O [KANAMYCIN]	8 µg/mL	> 512 µg/mL	> 512 µg/mL	–
CCCCCCCCCCCCOS(=O)(=O)[O-].[Na+] [SODIUM LAURYL SULFATE]	1000 µg/mL	125 µg/mL	62.5 µg/mL	Activity (Escherichia coli [4]): Active; Activity (Escherichia coli [5]): Active
N#CC(C#N)=NNc1cccc(Cl)c1 [CARBONYL CYANIDE M-CHLOROPHENYLHYDRAZONE]	128 µM	16 µM	32 µM	Activity (Escherichia coli [6]): Active; Activity (Escherichia coli [7]): Active; Activity (Escherichia coli [8]): Active
CC(=O)O[C@H]1C[C@@]2(C)[C@@H](C[C@@H](O)[C@H]3[C@@]4(C)CC[C@@H](O)[C@@H](C)[C@@H]4CC[C@@]32C)/C1=C(\CCC=C(C)C)C(=O)O [FUSIDIC ACID]	> 512 µg/mL	128 µg/mL	16 µg/mL	–
CC[C@H]1OC(=O)[C@H](C)[C@@H](O[C@H]2C[C@@](C)(OC)[C@@H](O)[C@H](C)O2)[C@H](C)[C@@H](O[C@@H]2O[C@H](C)C[C@H](N(C)C)[C@H]2O)[C@](C)(O)C[C@@H](C)[C@@H]2N[C@@H](COCCOC)O[C@H]([C@H]2C)[C@]1(C)O [DIRITHROMYCIN]	256 µg/mL	16 µg/mL	16 µg/mL	–
CC[C@H]1OC(=O)[C@H](C)[C@@H](O[C@H]2C[C@@](C)(OC)[C@@H](O)[C@H](C)O2)[C@H](C)[C@@H](O[C@@H]2O[C@H](C)C[C@H](N(C)C)[C@H]2O)[C@](C)(O)C[C@@H](C)C(=O)[C@H](C)[C@@H](O)[C@]1(C)O [ERYTHROMYCIN]	128 µg/mL	8 µg/mL	4 µg/mL	Activity (Escherichia coli [9]): Active; Activity (Escherichia coli [10]): Active
O=C(N[C@H](CO)[C@H](O)c1ccc([N+](=O)[O-])cc1)C(Cl)Cl [CHLORAMPHENICOL]	8 µg/mL	> 128 µg/mL	2 µg/mL	–
O=C(O)c1cn(C2CC2)c2cc(N3CCNCC3)c(F)cc2c1=O [CIPROFLOXACIN]	> 0.25 µg/mL	0.0625 µg/mL	0.0625 µg/mL	Activity (Escherichia coli [9]): Active; Activity (Escherichia coli [10]): Active
CN(C)[C@@H]1C(O)=C(C(N)=O)C(=O)[C@@]2(O)C(O)=C3C(=O)c4c(O)cccc4[C@@](C)(O)[C@H]3C[C@@H]12 [TETRACYCLINE]	8 µg/mL	2 µg/mL	2 µg/mL	–
